Laboratory results published in US20240131098A1, “PHARMACEUTICAL COMPOSITION AND HEALTH FUNCTIONAL FOOD CONTAINING EXTRACT OF FRUITING BODY OF GANODERMA LUCIDUM AS ACTIVE INGREDIENT FOR PREVENTION OR TREATMENT OF THROMBOSIS” (Andong National University Industry-Academic Cooperation …, priority 2022, published 2024).

Key:
thrombin = molecular target: T1, thrombin (Homo sapiens, UniProt P00734); assay: Thrombin time (plasma coagulation, thrombin inhibitory activity); assay type: biochemical; details: 1.5 mg/ml; coagulation time of sample added group / DMSO added group
T1 construct: 50 μl of 0.5 U thrombin (Sigma Co., USA); purchased Sigma Co., USA
Procedure: (§1) The blood coagulation inhibitory activity of Ganoderma lucidum fruiting body samples was evaluated according to the previously reported methods (Sohn et al., 2004. Kor. J. Pharmacogn 35. 52-61; Kwon et al., 2004. J Life Science, 14. 509-513; Ryu et al. 2010. J. Life Science, 20. 922-928). For this, thrombin time, prothrombin time and aPT time were measured. For plasma, commercially available control plasma (MD Pacific Technology Co., Ltd, Huayuan Industrial Area, China) was used, and thrombin time, prothrombin time, and aPT time measurements were performed in a manner described below.
At 37° C., 50 μl of 0.5 U thrombin (Sigma Co., USA), 50 μl of 20 mM CaCl2, and 10 μl of sample extracts of various concentrations were mixed in the tube of Amelung coagulometer KC-1 A (Japan), and reacted for 2 minutes, followed by addition of 100 μl of plasma. After the addition of plasma, the time until plasma coagulation was measured. As a control, aspirin (Sigma Co., USA) was used, and as a solvent control, DMSO was used instead of the sample. […]
The thrombin inhibitory activity was expressed with the average of the results of three or more repeated experiments, and the thrombin inhibitory activity was expressed as the value obtained by dividing the coagulation time upon addition of the sample by the coagulation time upon addition of the solvent control. […]

blood coagulation factor = assay: aPTT (activated partial thromboplastin time), blood coagulation factor inhibitory activity; assay type: biochemical; details: 1.5 mg/ml; coagulation time of sample added group / DMSO added group
Procedure: as §1
aPTT (Activated Partial Thromboplastin Time)
100 μl of plasma and 10 μl of sample extracts of various concentrations were added to the tube of Amelung coagulometer KC-1A (Japan) and warmed at 37° C. for 3 minutes. 50 μl of aPTT reagent (Sigma, ALEXIN™) was added thereto and incubated at 37° C. for 3 minutes. 50 μl of CaCl2 (35 mM) was added, and the time until plasma coagulation was measured. As a solvent control, DMSO was used instead of the sample, and in this case, the coagulation time was 55.1 seconds. The aPTT was expressed with the average of the results of three or more repeated experiments, and the blood coagulation factor inhibitory activity was expressed as the value obtained by dividing the aPTT upon addition of the same by the aPTT time upon addition of the solvent control. […]

prothrombin = assay: Prothrombin time (plasma coagulation, prothrombin inhibitory activity); assay type: biochemical; details: 1.5 mg/ml; coagulation time of sample added group / DMSO added group
Procedure: as §1
70 μl of standard plasma (MD Pacific Co., China) and 10 μl of sample solutions of various concentrations were added to the tube of Amelung coagulometer KC-1A (Japan) and warmed at 37° C. for 3 minutes, followed by addition of 130 μl of PT reagent. After the addition of the PT reagent, the time until coagulation was measured. The time was expressed with the average value of the results of three repeated experiments. As a control, aspirin (Sigma Co., USA) was used, and as a solvent control, DMSO was used instead of the sample. In the case of DMSO, the coagulation time was 18.1 seconds. The prothrombin inhibitory activity was expressed as the value obtained by dividing the coagulation time upon addition of the sample by the coagulation time of the solvent control. […]

human erythrocytes = system: human erythrocytes
Procedure: The hemolytic activity was evaluated according to the previous report (Son Ho-yong, 2014. Korean J. Microbiol. Biotechnol. 42: 285-292). Briefly, 100 μl of human red blood cells washed three times with PBS were placed in a 96-well microplate, 100 μl of sample solution of various concentrations was added thereto, the reaction was performed at 37° C. for 30 minutes, and the reaction solution was centrifuged at 1,500 rpm for 10 minutes, 100 μl of the supernatant was transferred to a new microtiter plate, and the degree of hemoglobin leakage due to hemolysis was measured at 414 nm. DMSO (2%) was used as a solvent control for the sample, and Triton X-100 (1 mg/ml) was used as a control for red blood cell hemolysis. Hemolytic activity was calculated using the following formula:
(%)Hemolysis=[(Abs.S−Abs.C)/(Abs.T−Abs.C)]×100 • Abs.S: Absorbance of sample added group • Abs.C: Absorbance of DMSO added group • Abs.T: Absorbance of Triton X-100 added group

Compound	Blood coagulation inhibitory activity, Thrombin time (thrombin)	Blood coagulation inhibitory activity, aPT time (blood coagulation factor)	Blood coagulation inhibitory activity, Prothrombin time (prothrombin)	Human erythrocyte coagulation activity(%) (human erythrocytes)
CC(=O)Oc1ccccc1C(=O)O [Aspirin, aspirin]	1.45 ± 0.02	1.57 ± 0.11	1.40 ± 0.00	–
Triton X-100	–	–	–	0.4 ± 0.6%
